Consider 52 molecules from patent publication US9290457B2, “Substituted dihydropyrimidinones and their use as inhibitors of neutrophil elastase activity” (Boehringer Ingelheim International GmbH, priority 2014, dated 2016).

The assay addresses neutrophil elastase (Homo sapiens (Human), UniProt P08246). The assay is described as follows: Human Neutrophil Elastase Assay. The class given is biochemical. The note with it: substrate MeOSuc-Ala-Ala-Pro-Val-AMC. As for the experimental part: Human Neutrophil Elastase Assay
All other materials were of the highest grade commercially available.
The following buffers were used: Compound buffer: 100 mM Tris, 500 mM NaCl, adjusted to pH 7.5; Assay buffer: 100 mM Tris, 500 mM NaCl, adjusted to pH 7.5, containing 0.01% BSA.
Assay conditions: Test compounds were prediluted in DMSO and subsequently in compound buffer (5% DMSO final). […] After inactivation of the enzyme, fluorescence intensities were measured at 380 nm excitation and 460 nm emission wavelengths.
Each plate contains wells with a high value control (DMSO+enzyme+substrate) and wells with a low value control (DMSO+inactivated enzyme+substrate). IC50 values were estimated using a sigmoidal concentration response curve with variable slope. Means of low values were taken as 0%, means of high values as 100%.

Chain of neutrophil elastase (P08246 30-247): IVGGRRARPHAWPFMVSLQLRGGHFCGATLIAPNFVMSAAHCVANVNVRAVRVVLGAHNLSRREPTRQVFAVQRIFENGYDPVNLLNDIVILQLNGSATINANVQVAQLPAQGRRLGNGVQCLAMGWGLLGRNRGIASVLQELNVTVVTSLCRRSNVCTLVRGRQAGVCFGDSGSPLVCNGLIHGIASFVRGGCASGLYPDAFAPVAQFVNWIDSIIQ

In general, IC50 refers to the concentration that gives 50% inhibition. A higher IC50 goes with lower potency. `CC(=O)C1=C(C)N(c2cccc(C(F)(F)F)c2)C(=O)N(C)C1c1ccc(C#N)cc1C(=O)NC1CCN(C)CC1` (stereo not shown) [Example 1.28] displayed an IC50 of less than 1 nM.

`CC(=O)C1=C(C)N(c2cccc(C(F)(F)F)c2)C(=O)N(C)C1c1ccc(C#N)cc1C(N)=O` (stereo not shown) [Example 1, 2-[5-Acetyl-3,6-dimethyl-2-oxo-1-(3-trifluoromethyl-phenyl)-1,2,3,4-tetrahydro-pyrimidin-4-yl]-5-cyano-benzamide] returned a 50% inhibitory concentration (IC50) of less than 1 nM. `CC(=O)C1=C(C)N(c2cccc(C(F)(F)F)c2)C(=O)N(C)C1c1ccc(C#N)cc1C(=O)NCc1cccnc1` (stereo not shown) [Example 1.48] yielded an IC50 of less than 1 nM. The value for `CC(=O)C1=C(C)N(c2cccc(C(F)(F)F)c2)C(=O)N(C)C1c1ccc(C#N)cc1C(=O)NCc1cccnn1` (stereo not shown) [Example 1.50] was less than 1 nM; that for `CC(=O)C1=C(C)N(c2cccc(C(F)(F)F)c2)C(=O)N(C)C1c1ccc(C#N)cc1C(=O)NCC(C)(C)N` (stereo not shown) [Example 2.13] was less than 1 nM. The value for `CC(=O)C1=C(C)N(c2cccc(C(F)(F)F)c2)C(=O)N(C)[C@@H]1c1ccc(C#N)cc1C(N)=O` [Example 13, 2-[(R)-5-Acetyl-3,6-dimethyl-2-oxo-1-(3-trifluoromethyl-phenyl)-1,2,3,4-tetrahydro-pyrimidin-4-yl]-5-cyano-benzamide] was less than 1 nM; that for `COCCNC(=O)c1cc(C#N)ccc1C1C(C(C)=O)=C(C)N(c2cccc(C(F)(F)F)c2)C(=O)N1C` (stereo not shown) [Example 1.15] was less than 1 nM; that for `CC(=O)C1=C(C)N(c2cccc(C(F)(F)F)c2)C(=O)N(C)C1c1ccc(C#N)cc1C(=O)NCc1ccco1` (stereo not shown) [Example 1.35] was less than 1 nM.

`CCOC(=O)C1=C(C)N(c2cccc(C(F)(F)F)c2)C(=O)N(C)C1c1ccc(C#N)cc1-c1cnoc1` (stereo not shown) [Example 14.3] came in with an IC50 of less than 1 nM. The value for `CC(=O)C1=C(C)N(c2cccc(C(F)(F)F)c2)C(=O)N(C)C1c1ccc(C#N)cc1C(=O)N1CCN2CCCC2C1` (stereo not shown) [Example 1.80] was 6.3 nM; that for `CC(=O)C1=C(C)N(c2cccc(C(F)(F)F)c2)C(=O)N(C)C1c1ccc(C#N)cc1C(=O)NCc1ccnn1C` (stereo not shown) [Example 1.53] was less than 1 nM. The value for `CCOC(=O)C1=C(C)N(c2cccc(C(F)(F)F)c2)C(=O)N(C)C1c1ccc(C#N)cc1C(=O)NCCCOC` (stereo not shown) [Example 3.25] was 1.2 nM; that for `CC(=O)C1=C(C)N(c2cccc(C(F)(F)F)c2)C(=O)N(C)C1c1ccc(C#N)cc1C(=O)NCc1ccccc1` (stereo not shown) [Example 1.45] was 1 nM. The value for `CCNC(=O)c1cc(C#N)ccc1C1C(C(C)=O)=C(C)N(c2cccc(C(F)(F)F)c2)C(=O)N1C` (stereo not shown) [Example 1.4] was less than 1 nM; that for `CC(=O)C1=C(C)N(c2cccc(C(F)(F)F)c2)C(=O)N(C)C1c1ccc(C#N)cc1C(=O)N1CCC(O)CC1` (stereo not shown) [Example 1.26] was 4.7 nM. `CCOC(=O)C1=C(C)N(c2cccc(C(F)(F)F)c2)C(=O)N(C)C1c1ccc(C#N)cc1C(=O)NC1(C#N)CC1` (stereo not shown) [Example 3.1]: the IC50 is less than 1 nM. Under `CCOC(=O)C1=C(C)N(c2cccc(C(F)(F)F)c2)C(=O)N(C)C1c1ccc(C#N)cc1-c1cnn(C)c1` (stereo not shown) [Example 14.5] stands less than 1 nM. The value for `CCOC(=O)C1=C(C)N(c2cccc(C(F)(F)F)c2)C(=O)N(C)C1c1ccc(C#N)cc1C(=O)N1CC[C@H](N(C)C)C1` (stereo partly shown) [Example 3.38] was 1 nM; that for `CC(=O)C1=C(C)N(c2cccc(C(F)(F)F)c2)C(=O)N(C)C1c1ccc(C#N)cc1C(=O)N(C)Cc1ccncc1` (stereo not shown) [Example 1.68] was less than 1 nM; that for `CCOC(=O)C1=C(C)N(c2cccc(C(F)(F)F)c2)C(=O)N(C)C1c1ccc(C#N)cc1-c1ccn(C)c(=O)c1` (stereo not shown) [Example 14.9] was less than 1 nM. The value for `CC(=O)C1=C(C)N(c2cccc(C(F)(F)F)c2)C(=O)N(C)C1c1ccc(C#N)cc1C(=O)N1CCNC(C)C1` (stereo not shown) [Example 2.15] was 4.5 nM; that for `CC(=O)C1=C(C)N(c2cccc(C(F)(F)F)c2)C(=O)N(C)C1c1ccc(C#N)cc1C(=O)NCc1ccoc1` (stereo not shown) [Example 1.34] was less than 1 nM. As for `CCOC(=O)C1=C(C)N(c2cccc(C(F)(F)F)c2)C(=O)N(C)C1c1ccc(C#N)cc1C(=O)NCC#N` (stereo not shown) [Example 3.7], it took 3 nM to reach half-maximal inhibition (IC50). As to `CC(=O)C1=C(C)N(c2cccc(C(F)(F)F)c2)C(=O)N(C)C1c1ccc(C#N)cc1-c1cnco1` (stereo not shown) [Example 5.8], the IC50 was less than 1 nM. For the molecule `CCOC(=O)C1=C(C)N(c2cccc(C(F)(F)F)c2)C(=O)N(C)C1c1ccc(C#N)cc1C(=O)NCCO` (stereo not shown) [Example 3.10], the IC50 was 3 nM.

Molecule `CC(=O)C1=C(C)N(c2cccc(C(F)(F)F)c2)C(=O)N(C)C1c1ccc(C#N)cc1-c1nc(C)no1` (stereo not shown) [Example 9, 4-[5-Acetyl-3,6-dimethyl-2-oxo-1-(3-trifluoromethyl-phenyl)-1,2,3,4-tetrahydro-pyrimidin-4-yl]-3-(5-methyl-[1,3,4]oxadiazol-2-yl)-] registered a concentration for half-maximal inhibition (IC50) of less than 1 nM. Under `CC(=O)C1=C(C)N(c2cccc(C(F)(F)F)c2)C(=O)N(C)C1c1ccc(C#N)cc1C(=O)N(C)Cc1nncn1C` (stereo not shown) [Example 1.79] stands less than 1 nM; under `CCOC(=O)C1=C(C)N(c2cccc(C(F)(F)F)c2)C(=O)N(C)C1c1ccc(C#N)cc1C(=O)N1CCC1` (stereo not shown) [Example 3.9], 3 nM; under `CC(=O)C1=C(C)N(c2cccc(C(F)(F)F)c2)C(=O)N(C)C1c1ccc(C#N)cc1C(=O)NC1CCOC1` (stereo not shown) [Example 1.19], less than 1 nM. `CCOC(=O)C1=C(C)N(c2cccc(C(F)(F)F)c2)C(=O)N(C)C1c1ccc(C#N)cc1C(=O)N(C)Cc1cnn(C)c1` (stereo not shown) [Example 3.33]: the IC50 was less than 1 nM. `CCOC(=O)C1=C(C)N(c2cccc(C(F)(F)F)c2)C(=O)N(C)C1c1ccc(C#N)cc1C(=O)NCCN` (stereo not shown) [Example 4.5] displayed an IC50 of less than 1 nM. `CC(=O)C1=C(C)N(c2cccc(C(F)(F)F)c2)C(=O)N(C)C1c1ccc(C#N)cc1C(=O)NCc1cncn1C` (stereo not shown) [Example 1.52] returned an IC50 of less than 1 nM. The value for `CCOC(=O)C1=C(C)N(c2cccc(C(F)(F)F)c2)C(=O)N(C)C1c1ccc(C#N)cc1C(=O)N[C@H]1CCNC1` (stereo partly shown) [Example 4.10] was 1.2 nM.

`CCOC(=O)C1=C(C)N(c2cccc(C(F)(F)F)c2)C(=O)N(C)C1c1ccc(C#N)cc1C(=O)NC1CCN(C)C1` (stereo not shown) [Example 4.18] returned a concentration for half-maximal inhibition (IC50) of 1.3 nM.

In turn, `CC(=O)C1=C(C)N(c2cccc(C(F)(F)F)c2)C(=O)N(C)C1c1ccc(C#N)cc1C(=O)NCc1ccno1` (stereo not shown) [Example 1.38] displayed an IC50 of less than 1 nM. Under `CCOC(=O)C1=C(C)N(c2cccc(C(F)(F)F)c2)C(=O)N(C)C1c1ccc(C#N)cc1C(=O)N1C[C@H]2C[C@@H]1CN2` (stereo partly shown) [Example 4.1] stands 2.4 nM. With `CC(=O)C1=C(C)N(c2cccc(C(F)(F)F)c2)C(=O)N(C)C1c1ccc(C#N)cc1C(=O)NCc1cn[nH]c1` (stereo not shown) [Example 1.36], the IC50 was less than 1 nM.

On to `CCOC(=O)C1=C(C)N(c2cccc(C(F)(F)F)c2)C(=O)N(C)C1c1ccc(C#N)cc1C(=O)NC1CCN(C)CC1` (stereo not shown) [Example 3.31], for which half-maximal inhibition (IC50) required 1 nM. `CC(=O)C1=C(C)N(c2cccc(C(F)(F)F)c2)C(=O)N(C)C1c1ccc(C#N)cc1C(=O)NCC(F)(F)F` (stereo not shown) [Example 1.23] showed a 50% inhibitory concentration (IC50) of less than 1 nM. The value for `CC(=O)C1=C(C)N(c2cccc(C(F)(F)F)c2)C(=O)N(C)C1c1ccc(C#N)cc1C(=O)NCc1cnoc1` (stereo not shown) [Example 1.39] was less than 1 nM; that for `CCOC(=O)C1=C(C)N(c2cccc(C(F)(F)F)c2)C(=O)N(C)C1c1ccc(C#N)cc1C(=O)N1CCN2CCCC2C1` (stereo not shown) [Example 3.43] was 2.8 nM. `CC(=O)C1=C(C)N(c2cccc(C(F)(F)F)c2)C(=O)N(C)C1c1ccc(C#N)cc1C(=O)NCCCO` (stereo not shown) [Example 1.16] registered an IC50 of less than 1 nM. Turning to `CC(=O)C1=C(C)N(c2cccc(C(F)(F)F)c2)C(=O)N(C)C1c1ccc(C#N)cc1C(=O)NCc1nccn1C` (stereo not shown) [Example 1.57], the half-maximal inhibitory concentration (IC50) was less than 1 nM. The value for `CC(=O)C1=C(C)N(c2cccc(C(F)(F)F)c2)C(=O)N(C)C1c1ccc(C#N)cc1C(=O)NCc1cocn1` (stereo not shown) [Example 1.42] was less than 1 nM; that for `CCOC(=O)C1=C(C)N(c2cccc(C(F)(F)F)c2)C(=O)N(C)C1c1ccc(C#N)cc1C(=O)N1CCN2CCOCC2C1` (stereo not shown) [Example 3.46] was 3.8 nM; that for `CC(=O)C1=C(C)N(c2cccc(C(F)(F)F)c2)C(=O)N(C)C1c1ccc(C#N)cc1-c1ccc(=O)n(C)c1` (stereo not shown) [Example 5.11] was less than 1 nM. The molecule `CNC(=O)c1cc(C#N)ccc1C1C(C(C)=O)=C(C)N(c2cccc(C(F)(F)F)c2)C(=O)N1C` (stereo not shown) [Example 1.1] registered an IC50 of less than 1 nM. Consider `CCOC(=O)C1=C(C)N(c2cccc(C(F)(F)F)c2)C(=O)N(C)C1c1ccc(C#N)cc1C(=O)N1CC[C@H](NC)C1` (stereo partly shown) [Example 4.16], for which the half-inhibitory concentration (IC50) was less than 1 nM. The value for `CC(=O)C1=C(C)N(c2cccc(C(F)(F)F)c2)C(=O)N(C)C1c1ccc(C#N)cc1C(=O)N(C)CCO` (stereo not shown) [Example 1.14] was less than 1 nM; that for `CCOC(=O)C1=C(C)N(c2cccc(C(F)(F)F)c2)C(=O)N(C)C1c1ccc(C#N)cc1C(=O)N(C)CCCOC` (stereo not shown) [Example 3.30] was 1.1 nM. As for `CC(=O)C1=C(C)N(c2cccc(C(F)(F)F)c2)C(=O)N(C)C1c1ccc(C#N)cc1C(=O)NCc1ccn(C)n1` (stereo not shown) [Example 1.55], the 50% inhibitory concentration (IC50) was less than 1 nM. The value for `CC(=O)C1=C(C)N(c2cccc(C(F)(F)F)c2)C(=O)N(C)C1c1ccc(C#N)cc1C1=CCN(C(=O)OC(C)(C)C)CC1` (stereo not shown) [Example 5.6, 4-{2-[5-Acetyl-3,6-dimethyl-2-oxo-1-(3-trifluoromethyl-phenyl)-1,2,3,4-tetrahydro-pyrimidin-4-yl]-5-cyano-phenyl}-3,6-dihydro-2H-pyridine-1-carboxylic acid tert-butyl ester] was 4.8 nM.
